Our source for the IC50 values is US9603833B2, “Benzene or thiophene derivative and use thereof as VAP-1 inhibitor” (R-Tech Ueno, Ltd., priority 2008, dated 2017).

Structures can show the parent of a compound that is named as a salt.

By IC50 is commonly meant the midpoint of a concentration-inhibition curve.

Test [1] deals with human VAP-1 enzyme (SSAO) (Homo sapiens (Human), UniProt Q16853). Briefly: Inhibitory effect on human VAP-1 enzyme (SSAO), radiochemical-enzyme assay using 14C-benzylamine. It is filed as biochemical. The settings on record: human VAP-1 expressed in a cell, cell extract; 14C-benzylamine 1×10^−5 mol/L; 37° C., 2 hours. The protocol: (§1) The compounds of the present invention obtained in Production Examples were examined for the inhibitory effect on human and rat VAP-1 enzyme (SSAO) by the following method.
(§2) The VAP-1 enzyme (SSAO) activity in both human and rat was measured by a radiochemical-enzyme assay using ^14C-benzylamine as an artificial substrate. Human or rat VAP-1 was cloned from the cDNA library and expressed in a cell. The cell extract was preincubated with a test compound solution (final concentration 1×10^−7-1×10^−10 mol/L) at room temperature for 20 minutes. Then, ^14C-benzylamine (final concentration 1×10^−5 mol/L) was added, and the mixture was incubated at a final volume of 200 μL at 37° C. for 2 hours. The enzyme reaction was stopped by addition of 2 mol/L (200 μL) citric acid. The oxidation product was extracted with 1 mL toluene/ethyl acetate (1:1), and the radioactivity thereof was measured by a liquid scintillation counter.

The target of the next test is rat VAP-1 enzyme (SSAO) (Rattus norvegicus (Rat), UniProt O08590). Kind of test: Inhibitory effect on rat VAP-1 enzyme (SSAO), radiochemical-enzyme assay using 14C-benzylamine. Type of test: biochemical. As to conditions: rat VAP-1 expressed in a cell, cell extract; 14C-benzylamine 1×10^−5 mol/L; 37° C., 2 hours. The protocol: as §1, §2
Chain of rat VAP-1 enzyme (SSAO) (O08590 whole entry): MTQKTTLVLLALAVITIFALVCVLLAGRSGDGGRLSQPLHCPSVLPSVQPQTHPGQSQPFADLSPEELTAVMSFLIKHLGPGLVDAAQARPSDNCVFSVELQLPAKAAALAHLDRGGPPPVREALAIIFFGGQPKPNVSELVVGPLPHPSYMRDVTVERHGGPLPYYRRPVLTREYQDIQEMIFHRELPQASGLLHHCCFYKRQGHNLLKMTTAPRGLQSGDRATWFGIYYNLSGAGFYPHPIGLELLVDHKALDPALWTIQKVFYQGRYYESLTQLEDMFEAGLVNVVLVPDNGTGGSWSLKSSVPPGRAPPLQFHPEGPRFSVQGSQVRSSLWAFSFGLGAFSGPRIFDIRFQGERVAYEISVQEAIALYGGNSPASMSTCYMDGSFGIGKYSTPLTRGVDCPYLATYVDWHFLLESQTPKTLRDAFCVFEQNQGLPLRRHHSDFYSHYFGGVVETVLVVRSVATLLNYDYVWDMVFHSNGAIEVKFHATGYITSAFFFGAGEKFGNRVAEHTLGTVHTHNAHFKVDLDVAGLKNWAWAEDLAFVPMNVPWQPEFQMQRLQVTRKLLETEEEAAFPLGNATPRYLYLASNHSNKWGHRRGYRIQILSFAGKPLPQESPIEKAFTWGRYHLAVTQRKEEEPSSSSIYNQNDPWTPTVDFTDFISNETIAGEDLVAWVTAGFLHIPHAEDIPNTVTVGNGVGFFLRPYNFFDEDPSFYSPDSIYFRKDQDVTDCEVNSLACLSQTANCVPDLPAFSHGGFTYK

Chain of human VAP-1 enzyme (SSAO) (Q16853 whole entry): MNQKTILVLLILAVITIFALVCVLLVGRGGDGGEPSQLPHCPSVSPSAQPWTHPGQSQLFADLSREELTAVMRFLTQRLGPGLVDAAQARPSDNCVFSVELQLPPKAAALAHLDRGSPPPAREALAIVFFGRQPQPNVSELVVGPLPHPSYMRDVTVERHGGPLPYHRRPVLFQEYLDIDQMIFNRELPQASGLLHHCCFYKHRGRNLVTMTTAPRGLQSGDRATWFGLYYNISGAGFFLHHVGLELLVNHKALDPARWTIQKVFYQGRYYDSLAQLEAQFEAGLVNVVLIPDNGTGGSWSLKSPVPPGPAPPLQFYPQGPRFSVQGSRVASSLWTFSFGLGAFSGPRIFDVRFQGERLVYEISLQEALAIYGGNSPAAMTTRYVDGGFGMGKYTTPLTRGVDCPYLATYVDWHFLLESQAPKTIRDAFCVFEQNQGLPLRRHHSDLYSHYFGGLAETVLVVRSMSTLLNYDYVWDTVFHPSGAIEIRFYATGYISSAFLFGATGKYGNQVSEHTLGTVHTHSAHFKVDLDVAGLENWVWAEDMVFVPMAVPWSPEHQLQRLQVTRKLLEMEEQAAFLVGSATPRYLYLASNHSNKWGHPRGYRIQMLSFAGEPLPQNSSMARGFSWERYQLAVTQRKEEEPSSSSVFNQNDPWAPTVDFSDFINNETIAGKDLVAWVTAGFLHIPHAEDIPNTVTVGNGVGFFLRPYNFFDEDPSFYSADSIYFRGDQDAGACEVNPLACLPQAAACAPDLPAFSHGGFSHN

In the case of `NNC(=O)Cc1ccc(CCc2ccc(N3CCNCC3)cc2C(F)(F)F)cc1` [Production Example 59, 2-(4-{2-[4-piperazin-1-yl-2-(trifluoromethyl)phenyl]ethyl}phenyl)acetohydrazide trihydrochloride], the IC50 in test [1] worked out at 11.3 nM; against rat VAP-1 enzyme (SSAO) it was 6.1 nM.

Turning to `NNC(=O)Cc1ccc(CCc2csc(N3CCNCC3)n2)cc1` [Production Example 95, 2-{4-[2-(2-piperazin-1-yl-1,3-thiazol-4-yl)ethyl]phenyl}acetohydrazide dihydrochloride], the IC50 is 6.3 nM in test [1] and 3.5 nM against rat VAP-1 enzyme (SSAO).

As for `CC(=O)N1CCN(c2ccc(CCc3ccc(CCOC(=O)NN)s3)nc2)CC1` [Production Example 115, 2-(5-{2-[5-(4-acetylpiperazin-1-yl)pyridin-2-yl]ethyl}thiophen-2-yl)ethyl hydrazinecarboxylate], the IC50 amounted to 4 nM in test [1] and 10.1 nM on rat VAP-1 enzyme (SSAO).

As to `CCN(CC)c1ccc(CCc2ccc(CC(=O)NN)cc2)nc1` [Production Example 88, 2-(4-{2-[5-(diethylamino)pyridin-2-yl]ethyl}phenyl)acetohydrazide trihydrochloride], the IC50 in test [1] is 10.2 nM; at rat VAP-1 enzyme (SSAO) it was 0.9 nM.

As for `NNC(=O)Cc1ccc(CCc2ccc(N3CCNCC3)s2)cc1` [Production Example 74, 2-{4-[2-(5-piperazin-1-ylthiophen-2-yl)ethyl]phenyl}acetohydrazide trihydrochloride], the IC50 was 12.2 nM in test [1] and 4.1 nM against rat VAP-1 enzyme (SSAO).

Regarding `CCN(C)c1ccc(CCc2ccc(CC(=O)NN)cc2)cn1` [Production Example 89, 2-[4-(2-{6-[ethyl(methyl)amino]pyridin-3-yl}ethyl)phenyl]acetohydrazide trihydrochloride], the IC50 in test [1] is 15.4 nM; on rat VAP-1 enzyme (SSAO) it was 0.9 nM.

For `CC(=O)N1CCN(c2ccc(CCc3ccc(C(=O)NN)s3)nc2)CC1` [Production Example 116, 5-{2-[5-(4-acetylpiperazin-1-yl)pyridin-2-yl]ethyl}thiophene-2-carbohydrazide], the IC50 in test [1] is 9.5 nM; at rat VAP-1 enzyme (SSAO), 9.8 nM.

For the compound `CC(=O)N1CCN(c2ccc(CCc3ccc(CC(=O)NN)s3)nc2)CC1` [Production Example 120, 2-(5-{2-[5-(4-acetylpiperazin-1-yl)pyridin-2-yl]ethyl}thiophen-2-yl)acetohydrazide], the IC50 in test [1] stood at 3.7 nM; on rat VAP-1 enzyme (SSAO), 0.6 nM.

As to `CC(=O)N1CCN(c2ccc(CCc3ccc(CNC(=O)NN)cc3F)nc2)CC1` [Production Example 114, N-(4-{2-[5-(4-acetylpiperazin-1-yl)pyridin-2-yl]ethyl}-3-fluorobenzyl)hydrazinecarboxamide trihydrochloride], the IC50 in test [1] was determined as 2 nM; at rat VAP-1 enzyme (SSAO) it was 1.2 nM.

Turning to `CC(=O)N1CCN(c2ccc(CCc3csc(CCC(=O)NN)c3)nc2)CC1` [Production Example 121, 3-(4-{2-[5-(4-acetylpiperazin-1-yl)pyridin-2-yl]ethyl}thiophen-2-yl)propanehydrazide trihydrochloride], the IC50 was found to be 2.2 nM in test [1] and 1.6 nM on rat VAP-1 enzyme (SSAO).

In the case of `NNC(=O)Cc1ccc(CCc2cncc(N3CCNCC3)c2)cc1` [Production Example 102, 2-{4-[2-(5-piperazin-1-ylpyridin-3-yl)ethyl]phenyl}acetohydrazide tetrahydrochloride], the IC50 in test [1] is 19.4 nM; at rat VAP-1 enzyme (SSAO), 9.4 nM.

For `CC(=O)N1CCN(c2cnc(CCc3ccc(CC(=O)NN)cc3)cn2)CC1` [Production Example 101, 2-(4-{2-[5-(4-acetylpiperazin-1-yl)pyrazin-2-yl]ethyl}phenyl)acetohydrazide trihydrochloride], the IC50 in test [1] was 3.4 nM; on rat VAP-1 enzyme (SSAO), 2.1 nM.

On to `CC(=O)N1CCN(c2ccc(CCc3ccc(CC(=O)NN)cc3)nn2)CC1` [Production Example 99, 2-(4-{2-[6-(4-acetylpiperazin-1-yl)pyridazin-3-yl]ethyl}phenyl)acetohydrazide trihydrochloride], for which the values for the IC50 (in test [1]; against rat VAP-1 enzyme (SSAO)) were 13.5 nM and 2.5 nM, respectively.

Consider `CCN(CC)c1ccc(CCc2ccc(CC(=O)NN)cc2)cc1` [Production Example 30, 2-(4-{2-[4-(diethylamino)phenyl]ethyl}phenyl)acetohydrazide dihydrochloride], for which the IC50 amounted to 13 nM in test [1] and 2.2 nM against rat VAP-1 enzyme (SSAO).

Take `CCCN(CCC)c1ccc(CCc2ccc(CC(=O)NN)cc2)cn1` [Production Example 92, 2-(4-{2-[6-(dipropylamino)pyridin-3-yl]ethyl}phenyl)acetohydrazide trihydrochloride]: the IC50 is 20.5 nM in test [1] and 0.8 nM at rat VAP-1 enzyme (SSAO).

Regarding `NNC(=O)Cc1ccc(CCc2ccc(N3CCCCC3)nc2)cc1` [Production Example 45, 2-{4-[2-(6-piperidin-1-ylpyridin-3-yl)ethyl]phenyl}acetohydrazide trihydrochloride], the IC50 is 17.2 nM in test [1] and 1.2 nM against rat VAP-1 enzyme (SSAO).

Take `CC(=O)N1CCN(c2ccc(CCc3ccc(COC(=O)NN)cc3)nc2)CC1` [Production Example 108, 4-{2-[5-(4-acetylpiperazin-1-yl)pyridin-2-yl]ethyl}benzyl hydrazinecarboxylate trihydrochloride]: the half-maximal inhibitory concentration (IC50) in test [1] is 0.9 nM; against rat VAP-1 enzyme (SSAO), 0.8 nM.

For `CC(=O)N1CCN(c2ccc(CCc3ccc(CC(=O)NN)cc3)cn2)CC1` [Production Example 47, 2-(4-{2-[6-(4-acetylpiperazin-1-yl)pyridin-3-yl]ethyl}phenyl)acetohydrazide trihydrochloride], the IC50 in test [1] came out at 16.1 nM; against rat VAP-1 enzyme (SSAO) it was 3.6 nM.

Regarding `CC(=O)N1CCN(c2ccc(CCc3csc(CCCOC(=O)NN)c3)nc2)CC1` [Production Example 124, 3-(4-{2-[5-(4-acetylpiperazin-1-yl)pyridin-2-yl]ethyl}thiophen-2-yl)propylhydrazinecarboxylate], the IC50 was determined as 4.7 nM in test [1] and 5.5 nM at rat VAP-1 enzyme (SSAO).

Turning to `CC(=O)N1CCN(c2ccc(CCc3cccc(COC(=O)NN)c3)nc2)CC1` [Production Example 111, 3-{2-[5-(4-acetylpiperazin-1-yl)pyridin-2-yl]ethyl}benzyl hydrazinecarboxylate trihydrochloride], the IC50 in test [1] stood at 0.5 nM; against rat VAP-1 enzyme (SSAO) it was 0.4 nM.

For `CC(=O)N1CCN(c2ccc(CCc3ccc(CCNC(=O)NN)s3)nc2)CC1` [Production Example 117, N-[2-(5-{2-[5-(4-acetylpiperazin-1-yl)pyridin-2-yl]ethyl}thiophen-2-yl)ethyl]hydrazinecarboxamide], the IC50 in test [1] is 18.7 nM; at rat VAP-1 enzyme (SSAO) it was 2.7 nM.

With `CCN(CC)c1ccc(CCc2ccc(CC(=O)NN)cc2)cn1` [Production Example 85, 2-(4-{2-[6-(diethylamino)pyridin-3-yl]ethyl}phenyl)acetohydrazide trihydrochloride], the values for the IC50 (in test [1]; against rat VAP-1 enzyme (SSAO)) were 15.7 nM and 1.9 nM, respectively.

With `NNC(=O)Cc1ccc(CCc2ccc(N3CCNCC3)cn2)cc1` [Production Example 86, 2-{4-[2-(5-piperazin-1-ylpyridin-2-yl)ethyl]phenyl}acetohydrazide tetrahydrochloride], the IC50 was 9.8 nM in test [1] and 1 nM on rat VAP-1 enzyme (SSAO).
